We go through ten molecules from publication PMC12509308, “Stereochemistry and Charged State Influence Effector Outcomes of D‑2-Hydroxyglutarate Dehydrogenase Ligands” (Biochemistry, 2025).

The Km is the concentration of substrate that gives half-maximal velocity. Broadly, the kcat is the number of substrate molecules converted per active site and unit of time at saturation.

T1: PaD2HGDH (Pseudomonas aeruginosa, UniProt Q9I6H4)
T1 construct: gene PA0317; full-length wild type, C-terminal 6x-His tag kept, pET20b(+), expressed in E. coli Rosetta(DE3)pLysS, Ni-NTA purified
T1 sequence (Q9I6H4 1-464): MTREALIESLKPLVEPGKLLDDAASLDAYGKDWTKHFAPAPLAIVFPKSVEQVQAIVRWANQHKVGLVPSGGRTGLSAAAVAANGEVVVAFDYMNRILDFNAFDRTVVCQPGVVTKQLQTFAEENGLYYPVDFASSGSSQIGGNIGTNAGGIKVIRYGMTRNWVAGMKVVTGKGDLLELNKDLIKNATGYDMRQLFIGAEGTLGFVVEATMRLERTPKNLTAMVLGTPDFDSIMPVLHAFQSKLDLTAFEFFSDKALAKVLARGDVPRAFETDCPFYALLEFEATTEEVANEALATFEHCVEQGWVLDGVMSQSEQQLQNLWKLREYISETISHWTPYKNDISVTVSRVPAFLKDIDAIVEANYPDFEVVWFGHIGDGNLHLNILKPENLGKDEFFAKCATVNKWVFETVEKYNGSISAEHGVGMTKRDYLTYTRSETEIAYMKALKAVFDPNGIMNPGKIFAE

B1: PaD2HGDH (Pseudomonas aeruginosa PAO1) (protein)
chain: T1 sequence (Q9I6H4 1-464)
notes: full-length wild type, C-terminal 6x-His tag kept, pET20b(+), expressed in E. coli Rosetta(DE3)pLysS, Ni-NTA purified

Substrate in one series: O=C(O)C[C@@H](O)C(=O)O
Kind of series: PMS-driven oxygen consumption, initial rates, global fit of inhibition data. To be noted: fitted in the oxaloacetate inhibition assay (Ka extrapolated to no inhibitor), D-malate 1-60 mM, 1 mM PMS, 25 mM NaPO4 pH 7.4, 25 °C. Format: biochemical, Pseudomonas aeruginosa. The text has this: PMS-driven oxygen consumption, initial rates, global fit of inhibition data on PaD2HGDH
As to B1, the Km was 8.4 ± 0.1 mM and the kcat was 29.1 ± 0.1 s⁻¹.

The target of another series is T1, PaD2HGDH. Description: PMS-driven oxygen consumption, initial rates, steady-state inhibition. Format: biochemical. To be noted: read-out: Kis. An excerpt: PMS-driven oxygen consumption, initial rates, steady-state inhibition on PaD2HGDH
Consider `O=C(O)C(O)c1ccc(O)c(O)c1` (racemic) [D/L-3,4-Dihydroxymandelate], for which the Ki is 4.1 ± 0.3 mM.

In the case of `O=C(O)C(O)c1ccc(O)cc1` (racemic) [D/L-4-Hydroxymandelate], the Ki is 6.5 ± 0.7 mM.

Turning to `O=C(O)CC(C(=O)O)C(O)C(=O)O` (racemic) [D/L-Isocitrate], the Ki came to 7.8 ± 0.4 mM.

Consider `O=C(O)CCC(=O)C(=O)O` [2-Ketoglutarate], for which the Ki worked out at 4.3 ± 0.3 mM.

As to `O=C(O)[C@H](O)c1ccccc1` [D-Mandelate], the Ki amounted to 18.4 ± 0.6 mM.

Regarding `O=C(O)CC[C@H](O)C(=O)O` [L-2-Hydroxyglutarate], the Ki is 4.1 ± 0.4 mM.

`O=C(O)C[C@H](O)C(=O)O` [L-Malate]: the Ki was 14.6 ± 1.5 mM.

Regarding `O=C(O)CC(=O)C(=O)O` [Oxaloacetate], the Ki worked out at 2.02 ± 0.03 mM.

As for `O=C(O)C(O)C(=O)O` [Tartronate], the Ki worked out at 18.6 ± 1.3 mM.
